# Experimental data as given in ChEMBL document CHEMBL3856247, “Wnt/β-catenin signaling plays an important role in the protective effects of FDP-Sr against oxidative stress induced apoptosis in MC3T3-E1 cell” (Bioorg Med Chem Lett, 2016).
# Calls of active or inactive are those of the source. No cut-off for these calls is given here.
# Tests used:
# Rattus norvegicus [1] = species on record: Rattus norvegicus; experiment: Cytotoxicity against […] cells assessed as effect on cell number at 1 mM after 48 hrs by MTT assay; format: toxicity, cell-based; conditions: mc3t3-e1, 48 h, 1000 µM
# [2] = Induction of Wnt/beta-catenin signaling pathway in […] cells assessed as protection against H2O2-induced oxidative stress by measuring increase in ALP activity at 0.5 to 2 mM pretreated with compound for 48 hrs followed by H2O2 treatment for 24 hrs; format: cell-based
# Rattus norvegicus [3] = species on record: Rattus norvegicus; experiment: Cytotoxicity against […] cells assessed as effect on cell number at 2 mM after 48 hrs by MTT assay; format: toxicity, cell-based; conditions: mc3t3-e1, 48 h, 2000 µM
# [4] = (§1) Induction of Wnt/beta-catenin signaling pathway in […] cells assessed as protection against H2O2-induced oxidative stress by measuring Runx2 activation at 0.5 to 2 mM pretreated with compound for 48 hrs followed by H2O2 treatment for 24 hrs by Western blot analysis; format: cell-based
# MC3T3-E1 [5] = experiment: Increase in cell viability of […] cells at 1 mM after 48 hrs by MTT assay; format: functional, cell-based
# Rattus norvegicus [6] = experiment: Protection against OVX-induced oxidative stress in osteoporosis rat model assessed as […] level in serum at 220 mg/kg/day after 3 months by colorimetric assay; format: functional, organism-based
# [7] = Induction of Wnt/beta-catenin signaling pathway in […] cells assessed as protection against H2O2-induced oxidative stress by measuring OPG activation at 0.5 to 2 mM pretreated with compound for 48 hrs followed by H2O2 treatment for 24 hrs by Western blot analysis; format: cell-based
# MC3T3-E1 [8] = experiment: Protection against H2O2-induced apoptosis in […] cells assessed as decrease in nuclear condensation pretreated with compound for 48 hrs followed by H2O2 treatment for 24 hrs by DAPI staining based confocal laser scanning microscopy; format: functional, cell-based
# [9] = as §1, with “decrease in phosphorylated beta-catenin expression” for “Runx2 activation”; format: cell-based
# [10] = Induction of Wnt/beta-catenin signaling pathway in […] cells assessed as protection against H2O2-induced oxidative stress in presence of Wnt/beta-catenin signaling pathway inhibitor XAV-939; format: cell-based
# [11] = (§2) Induction of Wnt/beta-catenin signaling pathway in […] cells assessed as protection against H2O2-induced oxidative stress by measuring increase in onc mRNA expression at 2 mM pretreated with compound for 48 hrs followed by H2O2 treatment for 24 hrs by immunofluorescence staining method; format: cell-based
# MC3T3-E1 [12] = experiment: Protection against H2O2-induced apoptosis in rat MC3T3-E1 cells assessed as inhibition of caspase 3 activation using Ac-DEVD-pNA as substrate pretreated with compound for 48 hrs followed by H2O2 treatment for 24 hrs; format: functional, cell-based
# [13] = Induction of Wnt/beta-catenin signaling pathway in […] cells assessed as protection against H2O2-induced oxidative stress by measuring ALP activation at 0.5 to 2 mM pretreated with compound for 48 hrs followed by H2O2 treatment for 24 hrs by Western blot analysis; format: cell-based
# [14] = Induction of Wnt/beta-catenin signaling pathway in […] cells assessed as protection against H2O2-induced oxidative stress by measuring increase in mineralization at 2 mM pretreated with compound for 48 hrs followed by H2O2 treatment for 24 hrs; format: cell-based
# MC3T3-E1 [15] = experiment: Protection against H2O2-induced apoptosis in rat MC3T3-E1 cells assessed as decrease in nuclear fragmentation pretreated with compound for 48 hrs followed by H2O2 treatment for 24 hrs by DAPI staining based confocal laser scanning microscopy; format: functional, cell-based
# [16] = Induction of Wnt/beta-catenin signaling pathway in […] cells assessed as protection against H2O2-induced cell death at 0.5 to 2 mM pretreated with compound for 48 hrs followed by H2O2 treatment for 24 hrs by MTT assay; format: cell-based
# MC3T3-E1 [17] = experiment: Protection against H2O2-induced apoptosis in rat MC3T3-E1 cells assessed as inhibition of caspase 3 mRNA level pretreated with compound for 48 hrs followed by H2O2 treatment for 24 hrs by quantitative real-time PCR method; format: functional, cell-based
# [18] = Induction of Wnt/beta-catenin signaling pathway in […] cells assessed as protection against H2O2-induced oxidative stress by measuring increase in ALP activity at 2 mM pretreated with compound for 48 hrs followed by H2O2 treatment for 24 hrs; format: cell-based
# [19] = as §2, with “expression at 0.5 to 2 mM” for “expression at 2 mM”; format: cell-based
# [20] = as §1, with “decrease in phosphorylated beta-catenin expression” for “Runx2 activation”, “1.5” for “0.5 to 2”; format: cell-based
# Rattus norvegicus [21] = experiment: Protection against OVX-induced oxidative stress in osteoporosis rat model assessed as decrease in H2O2 level in serum at 220 mg/kg/day after 3 months by colorimetric assay; format: functional, organism-based
# [22] = Induction of Wnt/beta-catenin signaling pathway in […] cells assessed as protection against H2O2-induced oxidative stress by measuring increase in mineralization at 0.5 to 2 mM pretreated with compound for 48 hrs followed by H2O2 treatment for 24 hrs; format: cell-based
# [23] = Induction of Wnt/beta-catenin signaling pathway in […] cells assessed as protection against H2O2-induced cell death at 2 mM pretreated with compound for 48 hrs followed by H2O2 treatment for 24 hrs by MTT assay; format: cell-based
# Rattus norvegicus [24] = experiment: Protection against OVX-induced osteoporosis in osteoporosis rat model assessed as increase in bone mineral density of femur at 220 mg/kg/day after 3 months by dual X-ray absorptiometry; format: functional, organism-based
smiles,measurement,setting,value
CC(=O)N[C@@H](CS)C(=O)O [ACETYLCYSTEINE],Activity,Rattus norvegicus [1],Non-Toxic
O.O.O.O.O.O.O.O.O=P([O-])([O-])OCC1(O)O[C@H](COP(=O)([O-])O)[C@@H](O)[C@@H]1O.[Na+].[Na+].[Na+] (some centres undefined) [FOSFRUCTOSE TRISODIUM],Activity,[2],Active
same,Activity,Rattus norvegicus [3],Non-Toxic
same,Activity,[4],Active
same,Activity,MC3T3-E1 [5],Active
same,Activity,Rattus norvegicus [6],Active
same,Activity,[7],Active
same,Activity,MC3T3-E1 [8],Active
same,Activity,[9],Active
same,Activity,[10],Active
same,Activity,[11],Active
same,Activity,MC3T3-E1 [12],Active
same,Activity,[13],Active
same,Activity,[14],Active
same,Activity,MC3T3-E1 [15],Active
same,Activity,[16],Active
same,Activity,MC3T3-E1 [17],Active
same,Activity,[18],Active
same,Activity,[19],Active
same,Activity,[20],Active
same,Activity,Rattus norvegicus [21],Active
same,Activity,[22],Active
same,Activity,[23],Active
same,Activity,Rattus norvegicus [24],Active
